Entries after “also recorded” stand apart in the source; their conditions may differ.
Assays:
guinea pig ileum [1] = assay: Antagonism of the effects of PGE1 on the guinea pig ileum in vitro; type: cell-based; conditions: listed as TR 4412
Method: (§1) The degree and specificity of antagonism of test compounds to the smooth muscle stimulant effects of prostaglandins were assessed in segments of terminal guinea pig ileum. Preparations were placed in tissue chambers filled with Ringer-Tyrode solution at 37° C., bubbled with a mixture of 95% O2 and 5% CO2, and arranged for isometric recording with force displacement transducers. The segments were stretched to an initial tension of 1 g, and responses to a test concentration of acetylcholine (0.1 mcg/ml) were obtained every 5 minutes until two similar responses were observed (usually after four administrations). […] Any direct contractile effect of the test compound was recorded and evaluated in terms of mean values in grams of tension developed at each concentration. Responses to the different agonists observed after incubation with the test compound were expressed as percent of control responses. All drugs were administered in a volume of 0.1 ml.
(§2) Antagonism to prostaglandins was scored independently for PGE1 and PGF2α according to the following criteria: […]

anesthetized dog = assay: Effects on femoral blood flow in the anesthetized dog; type: in vivo; conditions: intraarterial 0.001 to 10 mcg
Method: (H) effect on femoral blood flow in the anesthetized dog; and
The peripheral vasodilator or constrictor effects of test compounds were determined in mongrel dogs of either sex, weighing between 10 and 20 kg, anesthetized intravenously with 35 mg/kg of pentobarbital sodium. An external iliac artery was dissected immediately above the femoral arch for a length of approximately 5 cm, and a previously calibarated, non-cannulating electromagnetic-flowmeter sensor with a lumen between 2.5 and 3.5 mm was placed snugly around the vessel. Cannulas were placed in a branch of the artery arising distally to the location of the flowmeter sensor for intraarterial drug administrations, in the contralateral femoral artery for systemic blood pressure recording, and in the trachea for artificial respiration with room air. Femoral blood flow and systemic blood pressure were continuously recorded with an electromagnetic flowmeter and pressure transducer, respectively.
After an adequate control period, test compounds were injected intraarterially at one log-spaced doses ranging from 0.001 to 10 mcg, in a volume of 0.5 ml and at 5 to 10 minute intervals. […] The dose changing blood flow by 100 ml/min (ED100 ml/min) was calculated graphically and was used for scoring activity as follows: […]

guinea pig ileum [2] = assay: Antagonism of the effects of PGF2α on the guinea pig ileum in vitro; type: cell-based; conditions: listed as TR 4412
Method: as §1, §2

hypertensive rat = assay: Effects on blood pressure in the hypertensive rat; type: in vivo; set-up: key: 0: Not significant at any time interval; 1: Significant at one time interval; 2: Significant at two time intervals; conditions: 1 mg/kg intraperitoneal; 2, 4, 6 and 9 hours
Method: (I) effect on systolic blood pressure in the hypertensive rat
The acute anithypertensive activity of test compounds was determined in rats made hypertensive by the procedure of Grollman (Proc. Soc. Exper Biol. Med., 57: 102 [1944]). Female rats weighing between 60 and 100 g were anesthetized with ether, the right kidney approached through a flank retroperitoneal incision, decapsulated and tied with a figure-of-eight-ligature. The animals were left to recover and two weeks later were again anesthetized and the contralateral kidney removed. […]
Blood pressure was measured in the tail with an inflatable occluding cuff placed at the base of the extremity and a pulse detector located distally. The cuff was inflated to approximately 300 mmHg and was slowly deflated until pulsations appeared, indicating the level of systolic pressure; diastolic pressure was not recorded by this procedure. […] In all cases, three pressure readings were obtained in succession and mean values were calculated thereof.
Experiments were carried out in groups of five hypertensive rats in which systolic pressure was determined immediately before and 2, 4, 6 and 9 hours after intraperiotoneal administration of the test compound at a dose of 1 mg/kg. Drugs were diluted from stock solutions with phosphate buffer (Lee et al., Prostaglandins, 3: 29 [1973]), so as to inject this quantity in a volume of 1 ml/kg. […]

rat uterus = assay: Effects on the rat uterus in vitro; type: cell-based; conditions: dose producing response 50% that of carbachol
Method: (B) effect on the rat uterus in vitro;
The uterine stimulant effect of test compounds was determined in segments of uterus obtained from rats (140-160 g) pretreated subcutaneously with 1 mg/kg of diethylstilbesterol 18 hours before the experiment. The tissues were placed in 10 ml chambers filled with de-Jalon solution at 29° C., were aerated and bubbled with 95% O2 and 5% CO2, and were prepared for isometric recording with force displacement transducers. Preparations were stretched to an initial tension of 1 g and were left undisturbed for 30 minutes. Carbachol (1 mcg/ml) was then added to the bath and a response was recorded. After a ten minute interval the carbachol procedure was repeated. Responses to increasing concentrations of a test compound (0.001 to 10 mcg/ml with one log intervals) were then recorded every 10 minutes. Preparations were washed four times after each response. All doses of compounds were administered in a 0.1 ml volume. Because it has been observed that the magnitude of the second response to carbachol (approximately 10% greater than the first) is close to the maximal response of the tissue, such value was taken as a measure of the sensitivity of a particular segment. Responses to each concentration of the test compound were expressed in terms of percentage of the second response to carbachol and the ED50 (dose producing a response 50% that of carbachol) was calculated graphically.
Activity was scored according to the following scale: […]

anesthetized cat = assay: Effects on blood pressure and heart rate in the anesthetized cat; type: in vivo; conditions: i.v. 0.01 to 10.0 mcg/kg, scored on hypotension only
Method: (G) effect on blood pressure and heart rate in the anesthetized cat;
The acute effects of test compounds on blood pressure and heart rate were determined in cats of either sex anesthetized with a mixture of pentobarbital sodium (35 mg/kg, i.v.) and barbital sodium (100 mg/kg, i.v.). Cannulas were placed in the trachea to allow adequate spontaneous ventilation, in a femoral artery for blood pressure recording with a strain gage transducer, and in a saphenous vein for drug administration. Heart rate was recorded by means of a cardiotachometer driven by the R wave of the electrocardiogram. After a period of 10 minutes of stable recordings of blood pressure and heart rate, the test compound was administered intravenously at doses increasing from 0.01 to 10.0 mcg/kg, spaced one log and injected at 10 minute intervals. All doses were injected in a volume of 0.1 ml/kg. Modifications of blood pressure and heart rate induced by the test compound were expressed both in absolute units (mmHg and beats/minute) and as percent of values recorded immediately before administration of each dose. […]
Activity of compounds in this test was judged only on the basis of the degree of hypotension observed. Thus, the ED50 mmHg (dose decreasing blood pressure by 50 mmHg) was calculated graphically, and the compound scored according to the following scale: […]

guinea pig trachea = assay: Effects on the guinea pig trachea in vitro; type: cell-based; conditions: 0.01-10.0 mcg/ml, relative to PGE1 0.1 mcg/ml
Method: (C) effect on the guinea pig trachea in vitro;
A male guinea pig weighing 200-500 g was killed by a blow on the head. A 20 mm length of the trachea was dissected from the animal, transferred to a petri dish containing Krebs' solution (aerated with 95% O2 and 5% CO2 at 37° C.), and cut longitudinally opposite the tracheal muscle. The tissue was then cut transversely three quarters of the distance across, a second cut in the opposite direction (again three quarters of the distance across the tissue) was made and the procedure was continued for the whole tissue. The ends of the trachea were pulled to form a zig-zig shaped strip. The tracheal strip used in the experiment was approximately 30 mm when extended under 0.25-0.5 g load in the tissue bath. Cotton thread was tied to one end of the tissue, and linen thread to the other. It was attached via the linen thread to a glass hook in a 5 ml isolated tissue bath containing Krebs' solution (37° C., aerated with a mixture of 95% O2 and 5% CO2). […]
A test compound was then added to the same two strips at bath concentrations of 0.01, 0.1, 1.0, and 10.0 mcg/ml and the effects of the compound were recorded. […] The mean of the effects of the test compound on the two strips was then calculated for each concentration, and, based on the resulting values, an activity value was assigned as follows: […]

Compound | antagonism to the smooth muscle stimulant effects of PGE1 (in words) (guinea pig ileum [1]) | Femoral Blood Flow: activity value (ED100 ml/min) (anesthetized dog) | antagonism to the smooth muscle stimulant effects of PGF2α (in words) (guinea pig ileum [2]) | Blood Pressure Hypertensive Rat: activity value (hypertensive rat) | Rat Uterus: activity value (ED50) (rat uterus) | Feline Blood Pressure, Heart Rate: activity value (ED50 mmHg) (anesthetized cat) | Guinea Pig Trachea: activity value (guinea pig trachea)
CCCCC[C@H](O)/C(=C/[C@H]1[C@H](O)CC(=O)[C@@H]1CCCCCCC(=O)OC)c1ccccc1 [Example 1, Methyl 14-Phenyl-11α,15S-dihydroxy-9-oxoprost-13E-en-1-oate] | exhibited antagonism to the smooth muscle stimulant effects of PGE1 and PGF2α; also recorded: demonstrated a specificity of antagonism to the smooth muscle stimulant effects of PGE1 and PGF2α | 0 (>10.0) | exhibited antagonism to the smooth muscle stimulant effects of PGE1 and PGF2α; also recorded: demonstrated a specificity of antagonism to the smooth muscle stimulant effects of PGE1 and PGF2α | 0 | 0 (>10) | 0 (>10.0) | –
CCCCC[C@@H](O)/C(=C/[C@H]1[C@H](O)CC(=O)[C@@H]1C/C=C\CCCC(=O)OCC)c1ccccc1 [Example 7A, Ethyl 14-Phenyl-11α,15R-dihydroxy-9-oxoprosta-5Z,13E-dien-1-oate] | – | – | – | – | 0 (>10) | – | 1

— patent US4149007A, “C14 Phenyl-substituted derivatives of prostaglandin analogues” (Miles Laboratories, Inc., priority 1977, dated 1979)
